This passage reports IC50 results from patent US20260022142A1, “MACROCYCLIC IMMUNOMODULATORS” (Bristol-Myers Squibb Company, priority 2022, published 2026).

Structures are written as SMILES. Bridge positions count the residues as written; N and C are the ends. Square brackets hold non-standard residues; d marks the D form. Peptide text beside a SMILES is read from it. * marks the point of attachment. Phe(4-COOH) = N[C@@H](Cc1ccc(C(=O)O)cc1)C(=O)O; Bip = N[C@@H](Cc1ccc(-c2ccccc2)cc1)C(=O)O; Phe(3-Me) = Cc1cccc(C[C@H](N)C(=O)O)c1; 4Pal = N[C@@H](Cc1ccncc1)C(=O)O; Aad = N[C@@H](CCCC(=O)O)C(=O)O; Cha = N[C@@H](CC1CCCCC1)C(=O)O; Pen = CC(C)(S)[C@H](N)C(=O)O; Carboxymethyl = O=C(O)C*; Orn = NCCC[C@H](N)C(=O)O; Aun = NCCCCCCCCCCC(=O)O; Dab = NCC[C@H](N)C(=O)O; Dap = NC[C@H](N)C(=O)O

As usually defined, the IC50 is the concentration at which inhibition is half-maximal.

The target of the experiment is T1, PD-1/PD-L1 interaction (PE-labeled human PD-L1-Ig binding to Jurkat cell line over-expressing human PD-1) (Homo sapiens, UniProt Q15116).
T1 construct: expressed in transfected cells; host or cells: Jurkat
T1 sequence (Q15116 25-288): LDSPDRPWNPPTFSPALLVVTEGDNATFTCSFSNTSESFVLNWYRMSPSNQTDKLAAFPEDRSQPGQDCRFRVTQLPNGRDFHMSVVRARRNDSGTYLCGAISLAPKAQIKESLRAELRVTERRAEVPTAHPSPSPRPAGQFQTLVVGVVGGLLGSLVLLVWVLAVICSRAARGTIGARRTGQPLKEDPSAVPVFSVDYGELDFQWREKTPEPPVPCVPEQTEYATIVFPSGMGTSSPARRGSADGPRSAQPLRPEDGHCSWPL
The experiment is described as follows: Jurkat-PD-1 Cell Binding High-Content Screening Assay (CBA). The format is cell-based. The settings on record: Jurkat cell line over-expressing human PD-1; PE-labeled PD-L1-Ig 20 nM final; read-out: Jurkat hPD1-PDL1 IC50. An outline of the steps: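 Jurkat cells over-expressing human PD-1 (8×10^3 per well, DMEM/10% FCS) preincubated with compound 2 h at 37° C, then PE-labeled human PD-L1-Ig (20 nM final) added for 1 h. Cells fixed with paraformaldehyde, Hoechst-stained, and bound fluorescence quantified by high-content imaging.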
Take `CC(C)C[C@H]1NC(=O)[C@H](CCCN)NC(=O)[C@H](Cc2ccc(O)cc2)NC(=O)[C@H](Cc2ccc(-c3ccccc3)cc2)NC(=O)[C@H](C(C)C)NC(=O)[C@H](Cc2c[nH]c3ccccc23)NC(=O)[C@H](CC(=O)O)NC(=O)[C@H](Cc2ccc(O)cc2)NC(=O)[C@H](Cc2ccncc2)NC(=O)CSC[C@@H](C(=O)N[C@@H](CCN)C(=O)NCCCCCCCCCCC(=O)O)NC(=O)[C@H]([C@@H](C)O)NC(=O)[C@H](C(C)C)NC(=O)[C@H](CC2CCCCC2)NC(=O)[C@H](CCN)NC1=O` [Compound 2743] ({CH2CO}-[4Pal]YDWV[Bip]Y[Orn][dL][Dab][Cha]VTC[Dab][Aun]-OH; thioether N-14): the IC50 is 97.6 nM.

For the compound `Cc1cccc(C[C@@H]2NC(=O)[C@H](CC(=O)O)NC(=O)[C@H](Cc3ccc(OCC(=O)O)cc3)NC(=O)[C@H](Cc3ccncc3)NC(=O)CSC[C@@H](C(=O)N[C@@H](CCN)C(=O)NCCCCCCCCCCC(=O)O)NC(=O)[C@H]([C@@H](C)O)NC(=O)[C@H](C(C)C)NC(=O)[C@H](CC3CCCCC3)NC(=O)[C@H](CCN)NC(=O)[C@@H](CC(C)C)NC(=O)[C@H](CCCN)NC(=O)[C@H](Cc3ccc(O)cc3)NC(=O)[C@H](Cc3ccc(-c4ccccc4)cc3)NC(=O)[C@H](C(C)C)NC2=O)c1` [Compound 2744] ({CH2CO}-[4Pal]Y(Carboxymethyl)D[Phe(3-Me)]V[Bip]Y[Orn][dL][Dab][Cha]VTC[Dab][Aun]-OH; thioether N-14), the half-maximal inhibitory concentration (IC50) was determined as 72.5 nM. As for `Cc1cccc(C[C@@H]2NC(=O)[C@H](CC(=O)O)NC(=O)[C@H](Cc3ccc(O)cc3)NC(=O)[C@H](Cc3ccncc3)NC(=O)CSC[C@@H](C(=O)N[C@@H](CCN)C(=O)NCCCCCCCCCCC(=O)O)NC(=O)[C@H]([C@@H](C)O)NC(=O)[C@H](C(C)C)NC(=O)[C@H](CC3CCCCC3)NC(=O)[C@H](CCN)NC(=O)[C@@H](CC(C)C)NC(=O)[C@H](CCCN)NC(=O)[C@H](Cc3ccc(O)cc3)NC(=O)[C@H](Cc3ccc(-c4ccccc4)cc3)NC(=O)[C@H](C(C)C)NC2=O)c1` [Compound 2745] ({CH2CO}-[4Pal]YD[Phe(3-Me)]V[Bip]Y[Orn][dL][Dab][Cha]VTC[Dab][Aun]-OH; thioether N-14), the 50% inhibitory concentration (IC50) is 262 nM. As to `CC(C)C[C@H]1NC(=O)[C@H](CCCN)NC(=O)[C@H](Cc2ccc(O)cc2)NC(=O)[C@H](Cc2ccc(-c3ccccc3)cc2)NC(=O)[C@H](C(C)C)NC(=O)[C@H](Cc2c[nH]c3ccccc23)NC(=O)[C@H](CC(=O)O)NC(=O)[C@H](Cc2ccncc2)NC(=O)[C@H](Cc2ccc(OCC(=O)O)cc2)NC(=O)CSC[C@@H](C(=O)N[C@@H](CCN)C(=O)NCCCCCCCCCCC(=O)O)NC(=O)[C@H]([C@@H](C)O)NC(=O)[C@H](C(C)C)NC(=O)[C@H](CC2CCCCC2)NC(=O)[C@H](CCN)NC1=O` [Compound 2746] ({CH2CO}-Y(Carboxymethyl)[4Pal]DWV[Bip]Y[Orn][dL][Dab][Cha]VTC[Dab][Aun]-OH; thioether N-14), the half-inhibitory concentration (IC50) turned out to be 48.6 nM. To `Cc1cccc(C[C@@H]2NC(=O)[C@H](CC(=O)O)NC(=O)[C@H](Cc3ccc(OCC(=O)O)cc3)NC(=O)[C@H](Cc3ccc(OCC(=O)O)cc3)NC(=O)CSC[C@@H](C(=O)N[C@@H](CCN)C(=O)NCCCCCCCCCCC(=O)O)NC(=O)[C@H]([C@@H](C)O)NC(=O)[C@H](C(C)C)NC(=O)[C@H](CC(C)C)NC(=O)[C@H](CCN)NC(=O)[C@@H](CC(C)C)NC(=O)[C@H](CCCN)NC(=O)[C@H](Cc3ccc(O)cc3)NC(=O)[C@H](Cc3ccc(-c4ccccc4)cc3)NC(=O)[C@H](CC(C)C)NC2=O)c1` [Compound 2747] ({CH2CO}-Y(Carboxymethyl)Y(Carboxymethyl)D[Phe(3-Me)]L[Bip]Y[Orn][dL][Dab]LVTC[Dab][Aun]-OH; thioether N-14) belongs 45 nM; to `Cc1cccc(C[C@@H]2NC(=O)[C@H](CC(=O)O)NC(=O)[C@H](Cc3ccc(C(=O)O)cc3)NC(=O)[C@H](Cc3ccc(OCC(=O)O)cc3)NC(=O)CSC[C@@H](C(=O)N[C@@H](CCN)C(=O)NCCCCCCCCCCC(=O)O)NC(=O)[C@H]([C@@H](C)O)NC(=O)[C@H](C(C)C)NC(=O)[C@H](CC3CCCCC3)NC(=O)[C@H](CCN)NC(=O)[C@@H](CC(C)C)NC(=O)[C@H](CCCN)NC(=O)[C@H](Cc3ccc(O)cc3)NC(=O)[C@H](Cc3ccc(-c4ccccc4)cc3)NC(=O)[C@H](C(C)C)NC2=O)c1` [Compound 2748] ({CH2CO}-Y(Carboxymethyl)[Phe(4-COOH)]D[Phe(3-Me)]V[Bip]Y[Orn][dL][Dab][Cha]VTC[Dab][Aun]-OH; thioether N-14), 147 nM; to `Cc1cccc(C[C@@H]2NC(=O)[C@H](CC(=O)O)NC(=O)[C@H](Cc3ccc(OCC(=O)O)cc3)NC(=O)[C@H](CN)NC(=O)CSC[C@@H](C(=O)N[C@@H](CCN)C(=O)NCCCCCCCCCCC(=O)O)NC(=O)[C@H](CCCC(N)=O)NC(=O)[C@H](C(C)C)NC(=O)[C@H](CC3CCCCC3)NC(=O)[C@H](CCN)NC(=O)[C@@H](CC(C)C)NC(=O)[C@H](CCCN)NC(=O)[C@H](Cc3ccc(O)cc3)NC(=O)[C@H](Cc3ccc(-c4ccccc4)cc3)NC(=O)[C@H](Cc3ccc(O)cc3)NC2=O)c1` [Compound 2750] ({CH2CO}-[Dap]Y(Carboxymethyl)D[Phe(3-Me)]Y[Bip]Y[Orn][dL][Dab][Cha]V[Aad](NH2)C[Dab][Aun]-OH; thioether N-14), 9.1 nM. Regarding `Cc1cccc(C[C@@H]2NC(=O)[C@H](CC(=O)O)NC(=O)[C@H](Cc3ccc(OCC(=O)O)cc3)NC(=O)[C@H](CN)NC(=O)CSC[C@@H](C(=O)N[C@@H](CCN)C(=O)NCCCCCCCCCCC(=O)O)NC(=O)[C@H](CCCC(N)=O)NC(=O)[C@H](C(C)C)NC(=O)[C@H](CC3CCCCC3)NC(=O)[C@H](CCN)NC(=O)[C@@H](CC(C)C)NC(=O)[C@H](CCCN)NC(=O)[C@H](Cc3ccc(O)cc3)NC(=O)[C@H](Cc3ccc(-c4ccccc4)cc3)NC(=O)[C@H](C(C)C)NC2=O)c1` [Compound 2751] ({CH2CO}-[Dap]Y(Carboxymethyl)D[Phe(3-Me)]V[Bip]Y[Orn][dL][Dab][Cha]V[Aad](NH2)C[Dab][Aun]-OH; thioether N-14), the IC50 was 12.5 nM. For the compound `Cc1cccc(C[C@@H]2NC(=O)[C@H](CC(=O)O)NC(=O)[C@H](Cc3ccc(OCC(=O)O)cc3)NC(=O)[C@H](CN)NC(=O)CSC(C)(C)[C@@H](C(=O)N[C@@H](CCN)C(=O)NCCCCCCCCCCC(=O)O)NC(=O)[C@H]([C@@H](C)O)NC(=O)[C@H](C(C)C)NC(=O)[C@H](CC3CCCCC3)NC(=O)[C@H](CCN)NC(=O)[C@@H](CC(C)C)NC(=O)[C@H](CCCN)NC(=O)[C@H](Cc3ccc(O)cc3)NC(=O)[C@H](Cc3ccc(-c4ccccc4)cc3)NC(=O)[C@H](C(C)C)NC2=O)c1` [Compound 2753] ({CH2CO}-[Dap]Y(Carboxymethyl)D[Phe(3-Me)]V[Bip]Y[Orn][dL][Dab][Cha]VT[Pen][Dab][Aun]-OH; thioether N-14), the IC50 came to 113 nM. For `Cc1cccc(C[C@@H]2NC(=O)[C@H](CC(=O)O)NC(=O)[C@H](Cc3ccc(OCC(=O)O)cc3)NC(=O)[C@H](CN)NC(=O)CSC[C@@H](C(=O)N[C@@H](CCN)C(=O)NCCCCCCCCCCC(=O)O)NC(=O)[C@@H](CC(N)=O)NC(=O)[C@H](C(C)C)NC(=O)[C@H](CC3CCCCC3)NC(=O)[C@H](CCN)NC(=O)[C@@H](CC(C)C)NC(=O)[C@H](CCCN)NC(=O)[C@H](Cc3ccc(O)cc3)NC(=O)[C@H](Cc3ccc(-c4ccccc4)cc3)NC(=O)[C@H](C(C)C)NC2=O)c1` [Compound 2754] ({CH2CO}-[Dap]Y(Carboxymethyl)D[Phe(3-Me)]V[Bip]Y[Orn][dL][Dab][Cha]V[dN]C[Dab][Aun]-OH; thioether N-14) the value was 53.9 nM; for `Cc1cccc(C[C@@H]2NC(=O)[C@H](CC(=O)O)NC(=O)[C@H](Cc3ccc(OCC(=O)O)cc3)NC(=O)[C@H](CN)NC(=O)CSC[C@@H](C(=O)N[C@@H](CCN)C(=O)NCCCCCCCCCCC(=O)O)NC(=O)[C@@H](CC(N)=O)NC(=O)[C@H](C(C)C)NC(=O)[C@H](CC(C)C)NC(=O)[C@H](CCN)NC(=O)[C@@H](CC(C)C)NC(=O)[C@H](CCCN)NC(=O)[C@H](Cc3ccc(O)cc3)NC(=O)[C@H](Cc3ccc(-c4ccccc4)cc3)NC(=O)[C@H](C(C)C)NC2=O)c1` [Compound 2755] ({CH2CO}-[Dap]Y(Carboxymethyl)D[Phe(3-Me)]V[Bip]Y[Orn][dL][Dab]LV[dN]C[Dab][Aun]-OH; thioether N-14), 30.5 nM.

For `Cc1cccc(C[C@@H]2NC(=O)[C@H](CC(=O)O)NC(=O)[C@H](Cc3ccc(OCC(=O)O)cc3)NC(=O)[C@H](CN)NC(=O)CSC[C@@H](C(=O)N[C@@H](CCN)C(=O)NCCCCCCCCCCC(=O)O)NC(=O)[C@@H](CCC(=O)O)NC(=O)[C@H](C(C)C)NC(=O)[C@H](CC3CCCCC3)NC(=O)[C@H](CCN)NC(=O)[C@@H](CC(C)C)NC(=O)[C@H](CCCN)NC(=O)[C@H](Cc3ccc(O)cc3)NC(=O)[C@H](Cc3ccc(-c4ccccc4)cc3)NC(=O)[C@H](C(C)C)NC2=O)c1` [Compound 2756] ({CH2CO}-[Dap]Y(Carboxymethyl)D[Phe(3-Me)]V[Bip]Y[Orn][dL][Dab][Cha]V[dE]C[Dab][Aun]-OH; thioether N-14), the IC50 came to 40.7 nM.

Turning to `Cc1cccc(C[C@@H]2NC(=O)[C@H](CC(=O)O)NC(=O)[C@H](Cc3ccc(OCC(=O)O)cc3)NC(=O)[C@H](CN)NC(=O)CSC[C@@H](C(=O)N[C@@H](CCN)C(=O)NCCCCCCCCCCC(=O)O)NC(=O)[C@@H](CCC(=O)O)NC(=O)[C@H](C(C)C)NC(=O)[C@H](CC(C)C)NC(=O)[C@H](CCN)NC(=O)[C@@H](CC(C)C)NC(=O)[C@H](CCCN)NC(=O)[C@H](Cc3ccc(O)cc3)NC(=O)[C@H](Cc3ccc(-c4ccccc4)cc3)NC(=O)[C@H](C(C)C)NC2=O)c1` [Compound 2757] ({CH2CO}-[Dap]Y(Carboxymethyl)D[Phe(3-Me)]V[Bip]Y[Orn][dL][Dab]LV[dE]C[Dab][Aun]-OH; thioether N-14), the half-inhibitory concentration (IC50) is 177 nM.
